Measurements published in ChEMBL document CHEMBL3616439, “Synthesis, α-glucosidase inhibitory and molecular docking studies of prenylated and geranylated flavones, isoflavones and chalcones” (Bioorg Med Chem Lett, 2015).
Active and inactive are the calls of the source. The rule behind the calls is not given here.

Experiments:
[1] = Inhibition of baker's yeast alpha-glucosidase using p-nitrophenyl-alpha-D-glucopyranoside as substrate after 30 mins by spectrophotometric analysis; parameters: species or system Saccharomyces cerevisiae
[2] = system: Saccharomyces cerevisiae; experiment: Potency index, ratio of acarbose IC50 to compound IC50 for baker's yeast alpha-glucosidase
[3] = system: Saccharomyces cerevisiae; experiment: Competitive inhibition of baker's yeast alpha-glucosidase using p-nitrophenyl-alpha-D-glucopyranoside as substrate at 1 to 2 uM preincubated for 30 mins followed by substrate addition by Lineweaver-Burk plot analysis
[4] = system: Saccharomyces cerevisiae; experiment: Mixed-type inhibition of baker's yeast alpha-glucosidase using p-nitrophenyl-alpha-D-glucopyranoside as substrate at 4 to 6 uM preincubated for 30 mins followed by substrate addition by Lineweaver-Burk plot analysis
[5] = system: Saccharomyces cerevisiae; experiment: Competitive inhibition of baker's yeast alpha-glucosidase using p-nitrophenyl-alpha-D-glucopyranoside as substrate at 1.5 to 2 uM preincubated for 30 mins followed by substrate addition by Lineweaver-Burk plot analysis

SMILES: COc1ccc(-c2coc3c(CC=C(C)C)c(OC)cc(O)c3c2=O)cc1
- IC50 [1]: > 100 µM

SMILES: CC(C)=CCC/C(C)=C/Cc1cc(C(=O)/C=C/c2ccc(O)cc2)c(O)c(C/C=C(\C)CCC=C(C)C)c1O
- Ratio IC50 [2]: 50
- inhibition [3]: Active
- IC50 [1]: 0.9 µM

SMILES: CC(C)=CCC/C(C)=C/Cc1c(O)c(CC=C(C)C)cc(C(=O)/C=C/c2ccc(O)cc2)c1O
- IC50 [1]: 11.5 µM

SMILES: CC(C)=CCc1cc(C(=O)/C=C/c2ccc(O)cc2)c(O)c(CC=C(C)C)c1O [MEDICAGENIN]
- IC50 [1]: 6.9 µM

SMILES: CC(C)=CCc1cc(C(=O)/C=C/c2ccc(O)cc2)c(O)cc1O [BROUSSOCHALCONE B]
- IC50 [1]: 5.3 µM

SMILES: O=c1c(-c2ccc(O)cc2)coc2cc(O)cc(O)c12 [GENISTEIN]
- IC50 [1]: 50.1 µM

SMILES: CC(C)=CCC/C(C)=C/Cc1c(O)cc(O)c2c(=O)c(-c3ccc(O)cc3)coc12
- inhibition [4]: Active
- IC50 [1]: 6.26 µM

SMILES: COc1ccc(-c2coc3c(C/C=C(\C)CCC=C(C)C)c(OC)cc(OC)c3c2=O)cc1
- IC50 [1]: > 100 µM

SMILES: COc1ccc(/C=C/C(=O)c2cc(CC=C(C)C)c(OC)cc2OC)cc1
- IC50 [1]: > 100 µM

SMILES: CC(C)=CCc1c(O)cc(O)c2c(=O)c(-c3ccc(O)cc3)coc12
- IC50 [1]: > 100 µM

SMILES: CC(C)=CCC/C(C)=C/Cc1c(O)cc(O)c2c(=O)c(O)c(-c3ccc(O)c(O)c3)oc12
- inhibition [5]: Active
- IC50 [1]: 1.15 µM

SMILES: C[C@H]1O[C@H](O[C@H]2[C@H](O)[C@@H](O)[C@@H](O[C@H]3[C@H](O)[C@@H](O)C(O)O[C@@H]3CO)O[C@@H]2CO)[C@H](O)[C@@H](O)[C@@H]1N[C@H]1C=C(CO)[C@@H](O)[C@H](O)[C@H]1O (stereo partly drawn) [ACARBOSE]
- IC50 [1]: 51.3 µM

SMILES: COc1ccc(-c2coc3c(C/C=C(\C)CCC=C(C)C)c(OC)cc(O)c3c2=O)cc1
- IC50 [1]: > 100 µM

SMILES: CC(C)=CCc1c(O)cc(O)c2c(=O)c(O)c(-c3ccc(O)c(O)c3)oc12
- IC50 [1]: 4.38 µM

SMILES: COc1ccc(-c2coc3c(CC=C(C)C)c(OC)cc(OC)c3c2=O)cc1
- IC50 [1]: > 100 µM

SMILES: CC(C)=CCC/C(C)=C/Cc1cc(C(=O)/C=C/c2ccc(O)cc2)c(O)cc1O
- IC50 [1]: 16.3 µM

SMILES: O=C(/C=C/c1ccc(O)cc1)c1ccc(O)cc1O [ISOLIQUIRITIGENIN]
- IC50 [1]: > 100 µM

SMILES: O=c1c(O)c(-c2ccc(O)c(O)c2)oc2cc(O)cc(O)c12 [QUERCETIN]
- IC50 [1]: 11 µM

SMILES: CC(C)=CCC/C(C)=C/Cc1cc(C(=O)/C=C/c2ccc(O)cc2)c(O)c(CC=C(C)C)c1O
- IC50 [1]: 9 µM
